Earlier results, collected in US9233901B2, “Synthetic navel orangeworm pheromone composition and methods relating to production of same” (Suterra LLC, priority 2008, dated 2016).

Test system: major pheromone binding protein (AtraPBP)
Conditions: shown in other studies (Leal et al. 2005)

CC/C=C\C=C/CCCCCCCCCC=O [HDAL, (Z, Z)-11,13-hexadecadienal]
affinity for binding to a major pheromone binding protein (AtraPBP): high affinity
